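Dose response: 5 concentrations. Exposure: 48 h. Format: 96-well plates. Endpoint: linear interpolation; highest concentration if not reached. GI50 marks 50% less growth. At the TGI there is no net growth.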
Key:
Test in all cases: growth of human tumour cells (NCI), 48 h
K-562 leukemia = tested on: K-562 leukemia
RXF 393 renal = tested on: RXF 393 renal
UACC-257 melanoma = tested on: UACC-257 melanoma
HL-60(TB) leukemia = tested on: HL-60(TB) leukemia
OVCAR-5 ovarian = tested on: OVCAR-5 ovarian
HOP-62 NSCLC = tested on: HOP-62 NSCLC
SK-MEL-28 melanoma = tested on: SK-MEL-28 melanoma
OVCAR-4 ovarian = tested on: OVCAR-4 ovarian
NCI/ADR-RES ovarian = tested on: NCI/ADR-RES ovarian
HS 578T breast = tested on: HS 578T breast

Row | Compound | TGI (K-562 leukemia) [µM] | TGI (RXF 393 renal) [µM] | TGI (UACC-257 melanoma) [µM] | TGI (HL-60(TB) leukemia) [µM] | TGI (OVCAR-5 ovarian) [µM] | TGI (HOP-62 NSCLC) [µM] | TGI (SK-MEL-28 melanoma) [µM] | TGI (OVCAR-4 ovarian) [µM] | GI50 (K-562 leukemia) [µM] | GI50 (RXF 393 renal) [µM] | GI50 (UACC-257 melanoma) [µM] | GI50 (HL-60(TB) leukemia) [µM] | GI50 (OVCAR-5 ovarian) [µM] | GI50 (HOP-62 NSCLC) [µM] | GI50 (SK-MEL-28 melanoma) [µM] | GI50 (OVCAR-4 ovarian) [µM] | GI50 (NCI/ADR-RES ovarian) [µM] | TGI (NCI/ADR-RES ovarian) [µM] | TGI (HS 578T breast) [µM] | GI50 (HS 578T breast) [µM]
1 | O=C(NO)C(=O)Nc1ccc(Cl)cc1[N+](=O)[O-] | > 100 | > 100 | > 100 | > 100 | > 100 | > 100 | > 100 | > 100 |  |  |  |  |  |  |  |  |  |  |  | 
2 | CCC(C(=O)[O-])C(=O)[O-].CCC(C(=O)[O-])C(=O)[O-].N.N.NCCCCCCN.[Pt+4].[Pt+4] | 10.3 | 10.1 | 14 | 4.63 | 19.7 | 50 | 14.6 | 13 | 1.79 | 4.49 | 6.14 | 1.68 | 10.7 | 20.4 | 6.58 | 5.85 |  |  |  | 
3 | COc1ccc(-c2ccc(/C=N/n3c(C)nn(CN4CCN(C)CC4)c3=S)o2)c([N+](=O)[O-])c1 | 42.4 | > 100 |  | 33.3 | > 100 | > 100 | > 100 | 35.7 | 16.2 | 30.2 |  | 14.9 | 62.6 | 32.9 | 50 | 7.91 | 21.6 | 50.5 |  | 
4 | CC1=C(c2cc(C(=O)Nc3cccc(C(F)(F)F)c3)ncn2)Sc2ccccc2N1 | > 100 |  | > 100 | > 100 |  | > 100 | > 100 | > 100 |  |  |  |  |  |  |  |  |  |  |  | 
5 | COc1cccc2[nH]c(-c3ccccn3)nc12 | > 100 | > 100 | > 100 |  | > 100 | > 100 | > 100 | > 100 |  |  |  |  |  |  |  |  |  | 73.8 | > 100 | 
6 | OC(c1ccccn1)C1CNc2ccccc21 (stereo unspecified) | > 100 | > 100 | > 100 | > 100 | > 100 | > 100 | > 100 | > 100 |  |  |  |  |  |  |  |  |  |  |  | 
7 | COc1ccc(-c2c(-c3cc(OC)c4c(c3)OCO4)noc2N)cc1 | > 100 | 0.0627 |  | 13.7 | 99.3 | 37.1 | 33.4 | > 56.4 | 0.0193 | 0.0167 |  | 0.0351 | 0.339 | 0.0345 | 0.872 | 0.204 |  |  | 49.6 | 0.0302
8 | Cc1nc(Nc2ccc([N+](=O)[O-])cc2)sc1C(/C=C/c1ccc(N(C)C)cc1)=N/NC(=O)c1ccccc1 | > 100 | > 100 | > 100 | > 100 | > 100 | > 100 | > 100 | > 100 |  |  |  |  |  |  |  |  |  |  |  | 
9 | c1ccc(COCC2OC3c4ccccc4COC3C2OCc2ccccc2)cc1 (stereo unspecified) | > 100 | > 100 | > 100 |  | > 100 |  | > 100 | > 100 |  |  |  |  |  |  |  |  |  |  |  | 
10 | CC(=O)NNc1nc(C)c(C(/C=C/c2ccc(Cl)cc2)=N/NC(=O)C[N+](C)(C)C)s1 | > 100 | > 100 | > 100 | > 100 | > 100 |  | > 100 | > 100 |  |  |  |  |  |  |  |  |  |  |  | 
11 | Cc1nc(N)sc1C(=O)Nc1cc(C(=O)NCCCN(C)C)n(C)c1 | > 100 | > 100 | > 100 | > 100 | > 100 | > 100 | > 100 | > 100 | > 100 | > 100 | > 100 | > 100 | > 100 | > 100 | 65.4 | > 100 | > 100 | > 100 |  | 
12 | COC(=O)C(Cc1nc2ccc(Cl)cc2[nH]c1=O)/C(=N/NC(N)=O)C(=O)Nc1ccc(Cl)cc1 (stereo unspecified) | > 100 | > 100 | > 100 | > 100 | > 100 | > 100 | > 100 | > 100 |  |  |  |  |  |  |  |  |  |  |  | 
13 | N#CC1(C=O)c2ccccc2C=CN1C(=O)c1ccccc1 (stereo unspecified) | 91.6 | 53.8 | > 100 | 45.9 |  |  | > 100 | > 100 |  |  |  |  |  |  |  |  |  |  |  | 
14 | Cn1c2c(c3ccccc31)CCN(CCCCN1CCN(c3cccc(Cl)c3)CC1)C2=O | 27.6 |  | 19.8 | 18.9 | 16.9 | 30.7 | 20.1 | 32.2 |  |  |  |  |  |  |  |  |  |  |  | 
15 | Cc1cc(C)nc(SC2=C(Nc3cccc(Cl)c3C)C(=O)N(Cc3ccccc3)C2=O)n1 | > 160 |  | > 160 | > 160 | > 160 | > 160 | > 160 | > 160 | > 160 |  | > 160 | > 160 | > 160 | > 160 | > 160 | > 160 | > 160 | > 160 | > 160 | > 160
16 | O=C([O-])c1ccc(C(=O)[O-])cc1.O=C([O-])c1ccc(C(=O)[O-])cc1.[Mo+2].[Mo+2] | > 100 | > 100 | > 100 | > 100 | > 100 |  | > 100 | > 100 | > 100 | > 100 | > 100 | > 100 | > 100 |  | > 100 | > 100 |  |  |  | 
17 | CNCCCNc1nc2ccccc2c2c(=O)c3cc(Cl)ccc3sc12 |  |  | 3.31 |  | 3.03 | 2.44 | 3.34 |  |  |  | 1.8 |  | 1.62 | 1.13 | 1.82 |  |  |  | 4.31 | 1.72
18 | CCOC(=O)NC(=O)c1cn(CCN2CCN(C(=O)CCCCCCCCCCNc3ncnc4nc[nH]c34)CC2)c(=O)[nH]c1=O | > 100 | > 100 | > 100 | > 100 | > 100 | > 100 | > 100 | > 100 |  |  |  |  |  |  |  |  |  |  |  | 
19 | O=C(Oc1ccccc1Cl)c1ccccc1Nc1ccnc(C(F)(F)F)c1 | 3.39 |  |  | > 100 | 24.4 | 7.86 |  |  | 0.0768 |  |  | 0.472 | 0.459 | 2.69 |  |  | 0.269 | 0.698 | 74.1 | 20
